From paper PMC6832952, “Synthesis and Evaluation of Pyrimidine Steroids as Antiproliferative Agents” (Molecules, 2019) come the findings set out here.

Usually melting point stands for the temperature, or range, at which the solid turns liquid.

The subject of data set [1] is A549 (non-small cell lung) cells. The experiment in a line: Growth inhibition assay (NCI protocol), A549. To be noted: 48 h exposure. The format is cell-based, human. The source says:
(§1) We studied the antiproliferative activity of α,β-unsaturated ketones (2 and 6) and steroidal pyrimidines (3 and 7) against human cell lines following the guidelines of the National Cancer Institute. For the tests we selected five human solid tumor cell lines from diverse origins and one human fibroblast cell line as a model of non-tumor cells. These cell lines were chosen as representative of drug sensitive (A549, HBL-100, and HeLa) and drug resistant (T-47D and WiDr) monolayer cultures based on previous studies. The steroidal anticancer drugs abiraterone and galeterone were also tested for comparison purposes. […] This is a relevant finding, since our compounds are non-toxic to healthy cells, whilst the steroidal anticancer drugs inhibit the growth of fibroblasts at GI50 values as low as 4.5–5 µM.
(§2) The following densities (cells per well) were used: 2500 (A549, HBL-100, HeLa and SW1573), 5000 (T-47D, WiDr and SW1573/PGP), and 7000 (BJ-hTERT). […] Abiraterone and galeterone were used as reference drugs for antiproliferative tests, verapamil was used as a P-gp transport inhibitor in SW1573/Pgp experiments, and their stock solutions were prepared in DMSO at 40 mM. Paclitaxel and vinblastine were used as positive controls in SW1573/Pgp experiments and were initially dissolved in DMSO at 4 mM. For each test compound, the cells were exposed to serial decimal dilutions in the range of 0.001–100 μM for a period of 48 h. Cell culture medium containing verapamil was prepared by adding the final concentration of verapamil of 10 μM. For each product GI50 values were calculated according to the NCI formulas.

Data set [2] has as its system HBL-100 (breast) cells. The experiment in a line: Growth inhibition assay (NCI protocol), HBL-100. The format is cell-based, human. The conditions noted are these: 48 h exposure.
Excerpt: as §1, §2

Data set [3] concerns HeLa (cervix) cells. The experiment in a line: Growth inhibition assay (NCI protocol), HeLa. The format is cell-based, human. To be noted: 48 h exposure.
Excerpt: as §1, §2

The subject of data set [4] is T-47D (breast) cells. The experiment in a line: Growth inhibition assay (NCI protocol), T-47D. The format is cell-based, human. To be noted: 48 h exposure.
Excerpt: as §1, §2

Data set [5] relates to WiDr (colon) cells. The experiment in a line: Growth inhibition assay (NCI protocol), WiDr. Format: cell-based, human. The conditions noted are these: 48 h exposure.
Excerpt: as §1, §2

Data set [6] concerns BJ-hTERT human fibroblast cells. The experiment in a line: Growth inhibition assay (NCI protocol), BJ-hTERT fibroblasts. The format is cell-based. The conditions noted are these: 48 h exposure; non-tumor cells.
Excerpt: as §1, §2

In data set [7] the test system is SW1573 (non-small cell lung) cells. The experiment in a line: Growth inhibition assay, SW1573 wild type. To be noted: 48 h, without verapamil; read-out: GI50 SW1573 w/o Verapamil. Format: cell-based, human. The source says: (§3) Next, we studied if the compounds could be substrates for P-glycoprotein 1 (P-gp). P-gp is an important protein of the cell membrane that pumps xenobiotics out of cells. One of the resistance mechanisms to anticancer drugs involves the overexpression of P-gp by cancer cells, rendering these cancers multidrug resistant. Therefore, it is relevant to know whether compounds are substrates for P-gp or not. As a model to test the effect of P-gp overexpression in our compounds, we used a cell line-based assay. We selected one wild type human lung cancer cell line (SW1573) and its P-gp overexpressing variant (SW1573/PGP). In this test, cells were exposed to the compounds for 48 h in the absence or the presence of 10 µM verapamil, a well-known P-gp inhibitor [20].
(§4) The human solid tumor cell lines A549 (non-small cell lung), HBL-100 (breast), and HeLa (cervix), SW1573 (non-small cell lung), and its P-gp overexpressing variant (SW1573/Pgp), T-47D (breast), and WiDr (colon) were used in this study. These cell lines used in this study were kindly provided by Dr. Godefridus J. Peters (Cancer Center Amsterdam, Vrije Universiteit, Amsterdam, The Netherlands). BJ-hTERT human fibroblast cells were given by Dr. Raimundo Freire (Universidad de La Laguna, Canary Islands). All cells were grown in RPMI 1640 supplemented with 1 mM glutamine, 5% FBS and antibiotics. Cells were grown at 37 °C in a humidified atmosphere of 5% CO2 and maintained at low passage.
(§5) The antiproliferative activity was tested in vitro against human cancer cells using the protocol of the National Cancer Institute (NCI) of the USA16 with minor modifications. The following densities (cells per well) were used: 2500 (A549, HBL-100, HeLa and SW1573), 5000 (T-47D, WiDr and SW1573/PGP), and 7000 (BJ-hTERT). Samples for testing were dissolved initially in DMSO at 40 mM, i.e., 400 times the maximum test concentration. Abiraterone and galeterone were used as reference drugs for antiproliferative tests, verapamil was used as a P-gp transport inhibitor in SW1573/Pgp experiments, and their stock solutions were prepared in DMSO at 40 mM. Paclitaxel and vinblastine were used as positive controls in SW1573/Pgp experiments and were initially dissolved in DMSO at 4 mM. For each test compound, the cells were exposed to serial decimal dilutions in the range of 0.001–100 μM for a period of 48 h. Cell culture medium containing verapamil was prepared by adding the final concentration of verapamil of 10 μM. For each product GI50 values were calculated according to the NCI formulas.

The test system of data set [8] is SW1573/PGP cells. The experiment in a line: in vitro.
Excerpt: as §3, §4, §5

A short description of data set [9]: Solubility under protocol conditions. The conditions noted are these: growth inhibition protocol conditions. The format is physicochemical.
Excerpt: as §1
The following densities (cells per well) were used: 2500 (A549, HBL-100, HeLa and SW1573), 5000 (T-47D, WiDr and SW1573/PGP), and 7000 (BJ-hTERT). […] Abiraterone and galeterone were used as reference drugs for antiproliferative tests, verapamil was used as a P-gp transport inhibitor in SW1573/Pgp experiments, and their stock solutions were prepared in DMSO at 40 mM. Paclitaxel and vinblastine were used as positive controls in SW1573/Pgp experiments and were initially dissolved in DMSO at 4 mM. […] For each product GI50 values were calculated according to the NCI formulas.

For “20-Oxopregna-5,16-dien-3β-yl Acetate [Compound 6]”, the GI50 in [1] is 26 ± 5.2 µM; in data set [2] it was 64 ± 1.6 µM; in [3] it was 3.6 ± 0.4 µM; in data set [4], 29 ± 4.5 µM; in data set [5], 37 ± 2.1 µM; in data set [6] it was > 100 µM. Moreover, the GI50 in data set [7] is 72 ± 10 µM; in [8] it was > 100 µM.

Compound `CC1=C2C(CC3C4CC=C5C[C@@H](O)CC[C@]5(C)C4CC[C@]23C)NC(=N)N1` (stereo partly drawn) [Compound 7a, 1′,3′-dihydro-2′-imino-4′-methylpyrimidin-(6′,5′:16,17)-androst-5-en-3β-ol] gave a melting point of 108 to 110 °C. The “solubility under protocol conditions” value in data set [9] is reported as “poor solubility”.
